What was measured:
[1] = system: blood PEA level of depressed patient; test: Blood PEA level of depressed patients before and after administration of SNRI or SSRI (Example 1); type: in vivo; details: average value; for Blood PEA level After administration: after administration period of about 0.5 to 7 months; for Blood PEA level Before administration: baseline of the drug group, plasma, ion chromatography fluorescent detection
Description: After an informed consent was given to a patient who visited the clinic of the inventors, the patient's blood was collected. The blood PEA level was measured using an ion chromatography fluorescent detection method according to the following procedure. 50 μL of plasma and 450 μL of Milli-Q water were put in an Eppendorf tube and mixed by vortexing. The mixture was transferred to an ultrafiltration filter ([…] 5 kDa cut filter, Millipore Corporation), and subjected to centrifugal filtration (4° C., 9,100×g, 2 hours) until the solution in the filter disappeared. […] As subjects, 30 patients having the blood PEA levels ranging from 0.77 to 2.62 μM were employed. As a depression treatment drug, the SSRI or SNRT shown in Table 3 was administered to the patients. The blood PEA level after the administration was measured in the same procedure as before the administration. Although the administration periods variably depended on the patients, they ranged from about 0.5 to 7 months.

[2] = system: blood PEA level of depressed patient; test: Blood PEA level of depressed patients during continuous administration (Example 2); type: in vivo; details: for Blood PEA level Before administration: before administration in Example 1, patients with continuous administration; for Blood PEA level After continuous administration / Blood PEA level During continuous administration: continuous administration periods about 6 to 24 months
Description: Among the patients to whom the depression treatment drug was administered in Example 1, the patients who received continuous administration also after the period of Example 1 were investigated. The number of patients who received continuous administration of the SNRI was nine. On the other hand, the number of patients who received continuous administration of the SSRI was five. Although the continuous administration periods (including the administration period in Example 1) variably depended on the patients, they ranged from about 6 to 24 months. The blood PEA levels in the course of and after the end of the continuous administration of these patients were measured in the same procedure as in Example 1.
• t-test: Significant difference test of blood PEA level after continuous administration with respect to that before administration

CNCC[C@H](Oc1cccc2ccccc12)c1cccs1 [Duloxetine, duloxetine]
Blood PEA level After administration [1]: 1.46 µM
Blood PEA level Before administration [1]: 1.10 µM
Blood PEA level Before administration [2]: 1.11 µM
Blood PEA level After continuous administration [2]: 1.82 µM
Blood PEA level During continuous administration [2]: 1.47 µM

CCN(CC)C(=O)C1(c2ccccc2)CC1CN (stereo not drawn) [Milnacipran, milnacipran]
Blood PEA level After administration [1]: 1.66 µM
Blood PEA level Before administration [1]: 1.27 µM
Blood PEA level Before administration [2]: 1.44 µM
Blood PEA level After continuous administration [2]: 1.94 µM
Blood PEA level During continuous administration [2]: 1.71 µM

CN[C@H]1CC[C@@H](c2ccc(Cl)c(Cl)c2)c2ccccc21 [Sertraline, sertraline]
Blood PEA level After administration [1]: 1.26 µM
Blood PEA level Before administration [1]: 1.39 µM
Blood PEA level Before administration [2]: 1.39 µM
Blood PEA level After continuous administration [2]: 1.47 µM

Fc1ccc([C@@H]2CCNC[C@H]2COc2ccc3c(c2)OCO3)cc1 [Paroxetine, paroxetine]
Blood PEA level After administration [1]: 1.21 µM
Blood PEA level Before administration [1]: 1.42 µM

CN(C)CCC[C@@]1(c2ccc(F)cc2)OCc2cc(C#N)ccc21 [Escitalopram, escitalopram]
Blood PEA level After administration [1]: 1.22 µM
Blood PEA level After continuous administration [2]: 1.73 µM

Reference: patent US20170176412A1, “METHOD FOR PREDICTING OPTION OF DEPRESSION TREATMENT DRUG” (Human Metabolome Technologies Inc., priority 2014, published 2017)
